The target in assay [1] is T1, sEH (Homo sapiens, UniProt P34913).
T1 sequence (P34913 1-555): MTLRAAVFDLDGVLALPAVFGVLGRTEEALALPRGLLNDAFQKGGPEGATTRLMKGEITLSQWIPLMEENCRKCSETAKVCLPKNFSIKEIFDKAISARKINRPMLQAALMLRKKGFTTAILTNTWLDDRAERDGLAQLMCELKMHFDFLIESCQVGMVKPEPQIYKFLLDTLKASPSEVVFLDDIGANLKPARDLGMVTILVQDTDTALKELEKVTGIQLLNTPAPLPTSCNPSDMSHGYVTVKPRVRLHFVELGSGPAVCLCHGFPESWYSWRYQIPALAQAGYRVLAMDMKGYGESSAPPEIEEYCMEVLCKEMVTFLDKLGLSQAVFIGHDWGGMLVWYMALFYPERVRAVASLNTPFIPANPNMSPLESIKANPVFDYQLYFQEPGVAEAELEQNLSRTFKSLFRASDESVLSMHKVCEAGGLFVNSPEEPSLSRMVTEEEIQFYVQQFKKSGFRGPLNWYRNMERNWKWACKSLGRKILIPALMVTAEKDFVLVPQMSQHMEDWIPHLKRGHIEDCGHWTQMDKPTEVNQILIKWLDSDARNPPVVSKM
As to the kind of experiment: sEH inhibitory activity. As to conditions: for Inhibition of compounds against sEH, 50 μM (%): compound at 50 μM.

In assay [2] the target is T1, sEH. As to the kind of experiment: Inhibitory kinetic analysis.
[3] abbreviates: PHOME 10 μM, 20 min, 37 °C, pH 7.4.
Where [4] appears, read: read-out: Inhibition of compounds against sEH, IC50, PHOME 10 μM, 20 min, 37 °C, pH 7.4.

Read-outs that look alike come from different tables or passages of the source. Some results are limits rather than exact numbers.

A word on the IC50: it is the midpoint of a concentration-inhibition curve. Consider `CCOC(C)(C)[C@H](O)[C@@H](O)C[C@@H](C)C1=C2C[C@H](O)[C@H]3[C@@]4(C)CCC(=O)C(C)(C)[C@@H]4CC[C@]3(C)[C@@]2(C)CC1` [Compound 15, 25-O-ethyl alisol A], for which the “Inhibition of compounds against sEH, 50 μM (%)” value (“Inhibition of compounds … (%)” for short) on sEH [1] (setting [3]) was found to be 78.66 ± 2.19%. The IC50 at sEH [1] (setting [4]) came to 9.57 ± 0.88 µM.

For “25-methoxy alisol F 23-acetate [Compound 20]”, the “Inhibition of compounds … (%)” value at sEH [1] (setting [3]) came to 17.63 ± 0.56%. In addition, the IC50 at sEH [1] (setting [4]) was over 50 µM. For the molecule `CC(CC(O)C(=O)C(C)(C)O)C1=C2CC(O)C3C4(C)CCC(=O)C(C)(C)C4CC(O)C3(C)C2(C)CC1` (stereo not drawn) [Compound 10, 7α-hydroxy-24-oxo alisol A], the “Inhibition of compounds … (%)” value at sEH [1] (setting [3]) worked out at 18.64 ± 0.45%. Moreover, the IC50 on sEH [1] (setting [4]) was over 50 µM. For `CC(C)(O)C1O[C@](C)(C2=C3C[C@H](O)[C@H]4[C@@]5(C)CCC(=O)C(C)(C)[C@@H]5CC[C@]4(C)[C@@]3(C)CC2=O)CC1O` (stereo partly shown) [Compound 7, alismanol O], in that order: 24.45 ± 1.03% and over 50 µM. In the case of `COC1CC2(C)C(=C1C(C)CC(O)C(OC(C)=O)C(C)(C)O)C(O)CC1C3(C)CCC(=O)C(C)(C)C3CCC12C` (stereo not drawn) [Compound 23, 1-deoxy-12β-hydroxy-16β-methoxy alisol A 24-acetate], on sEH [1] (setting [3]), the “Inhibition of compounds … (%)” value was 16.27 ± 0.72%. Further, the concentration for half-maximal inhibition (IC50) on sEH [1] (setting [4]) is over 50 µM. As for alisol B 23-acetate [Compound 9], the “Inhibition of compounds … (%)” value at sEH [1] (setting [3]) is 37.63 ± 0.86%. In addition, the IC50 at sEH [1] (setting [4]) was over 50 µM.

Turning to `C=C(C)[C@H](O)[C@@H]1C[C@@H](C)C2=C3C[C@H](O)[C@H]4[C@@]5(C)CCC(=O)C(C)(C)[C@@H]5CC[C@]4(C)[C@@]3(C)C[C@@H]2O1` [Compound 16, 25-anhydro alisol F], the IC50 at sEH [1] (setting [4]) came out at 21.2 ± 0.5 µM. With `C[C@@H]1C[C@@H]([C@@H](O)C(C)(C)O)O[C@H]2C[C@@]3(C)C(=C12)[C@H](O)C[C@H]1[C@@]2(C)CCC(=O)C(C)(C)[C@@H]2CC[C@@]13C` [Compound 22, 11-deoxy-12β-hydroxy alisol F], at sEH [1] (setting [3]), the “Inhibition of compounds … (%)” value is listed as 17.96 ± 0.69%. At sEH [1] (setting [4]), the IC50 is over 50 µM. Turning to `CC(=O)O[C@H]([C@@H](O)C[C@@H](C)C1=C2C[C@H](O)[C@H]3[C@@]4(C)CCC(=O)C(C)(C)[C@@H]4CC[C@]3(C)[C@@]2(C)CC1)C(C)(C)O` [Compound 25, alisol A 24-acetate], the IC50 at sEH [1] (setting [4]) was 21.4 ± 1.7 µM. The Ki is a dissociation constant, usually derived from enzyme kinetics or from competition with a known ligand. High values mean a looser hold on the target, low ones a stronger hold on the target. `C=C(C)[C@@H](O)[C@@H](O)C[C@@H](C)C1=C2CC[C@H]3[C@@]4(C)CCC(=O)C(C)(C)[C@@H]4CC[C@]3(C)[C@@]2(C)CC1` [Compound 4, 11-deoxy-25-anhydro alisol E]: at sEH [2] (from Lineweaver-Burk plots), the Inhibition type entry is “mixed-type competitive”. This molecule also returned a Ki at sEH [2] (inhibition constant from slope plots) of 12.6 µM. Further, at sEH [1] (setting [3]), the “Inhibition of compounds … (%)” value was found to be 71.21 ± 1.56%. Further, at sEH [1] (setting [4]), the IC50 amounted to 5.94 ± 0.54 µM. In the case of `CC(=O)O[C@H]([C@@H]1C[C@@H](C)C2=C3[C@H](O)C[C@H]4[C@@]5(C)CCC(=O)C(C)(C)[C@@H]5CC[C@]4(C)[C@@]3(C)C[C@@H]2O1)C(C)(C)O` [Compound 21, 11-deoxy-12β-hydroxy alisol F 24-acetate], the “Inhibition of compounds … (%)” value at sEH [1] (setting [3]) turned out to be 39.33 ± 0.92%. Further, the IC50 on sEH [1] (setting [4]) is over 50 µM. The corresponding values for `CC(CC(O)C(O)C(C)(C)O)C1=C2C(O)C(O)C3C4(C)CCC(=O)C(C)(C)C4CC(O)C3(C)C2(C)CC1` (stereo not drawn) [Compound 8, 7α,12α-dihydroxyalisol A] are 44.42 ± 1.43% and over 50 µM. On to `CC1(C)O[C@@H]1[C@@H](O)C[C@](C)(O)C1=C2C[C@H](O)[C@H]3[C@@]4(C)CCC(=O)C(C)(C)[C@@H]4CC[C@]3(C)[C@@]2(C)CC1=O` [Compound 19, 20-hydroxy alisol C], for which, at sEH [1] (setting [4]), the IC50 amounted to 22.2 ± 1 µM. Consider `COC(C[C@@H](C)C1=C2C[C@H](O)[C@H]3[C@@]4(C)CCC(=O)C(C)(C)[C@@H]4CC[C@]3(C)[C@@]2(C)CC1)OC` [Compound 3, alismanin D], for which, at sEH [1] (setting [3]), the “Inhibition of compounds … (%)” value was determined as 78.54 ± 1.86%. In addition, the IC50 at sEH [1] (setting [4]) worked out at 14.8 ± 1.1 µM. “25-ethoxy-16-oxo-11-anhydro alisol A [Compound 18]”: the IC50 on sEH [1] (setting [4]) was 31.5 ± 1.4 µM.

With `CC(C)[C@@H](O)C[C@@H](C)C1=C2C[C@H](O)[C@H]3[C@@]4(C)CCC(=O)C(C)(C)[C@@H]4CC[C@]3(C)[C@@]2(C)CC1` [Compound 1, Alismanin B], the “Inhibition of compounds … (%)” value at sEH [1] (setting [3]) is 75.31 ± 2.42%. In addition, at sEH [1] (setting [4]), the IC50 is 7.15 ± 1.09 µM. In the case of `C[C@@H]1C[C@@H]([C@@H](O)C(C)(C)O)O[C@H]2C[C@@]3(C)C(=C12)CC[C@H]1[C@@]2(C)CCC(=O)C(C)(C)[C@@H]2CC[C@@]13C` [Compound 13, 11-deoxy alisol F], on sEH [1] (setting [4]), the IC50 is 22.1 ± 1.4 µM. `COC(=O)C[C@@H](C)C1=C2[C@H](O)C[C@H]3[C@@]4(C)CCC(=O)C(C)(C)[C@@H]4CC[C@]3(C)[C@@]2(C)C[C@@H]1OC` [Compound 17, alismanin E]: on sEH [1] (setting [3]), the “Inhibition of compounds … (%)” value is reported as 49.44 ± 1.15%. Also, at sEH [1] (setting [4]), the IC50 is over 50 µM. For `C=C(C)[C@@H](O)[C@@H]1C[C@@H](C)[C@@]2(CC[C@@]3(C)C2=C[C@H](OC)[C@H]2[C@@]4(C)CCC(=O)C(C)(C)[C@@H]4CC[C@@]23C)O1` [Compound 6, alismanin F], in that order: 71.6 ± 2.12% and 14.6 ± 1.1 µM. With `C=C(C)[C@@H]1OC(C)(C)O[C@H]1C[C@@H](C)C1=C2C[C@H](O)[C@H]3[C@@]4(C)CCC(=O)C(C)(C)[C@@H]4CC[C@]3(C)[C@@]2(C)CC1` [Compound 24, alisol G (23, 24)-diol acetonide], at sEH [1] (setting [4]), the IC50 came to 14.6 ± 1.6 µM. A word on the inhibition: it is the relative decrease from the control value, in per cent. Consider `C[C@H](C[C@H](O)[C@@H](O)C(C)(C)O)C1=C2C[C@H](O)[C@H]3[C@@]4(C)CCC(=O)C(C)(C)[C@@H]4CC[C@]3(C)[C@@]2(C)CC1` [Compound 2, alisol A], for which the IC50 against sEH [1] is over 50 µM. Further, on sEH [1] (pH 7.4, read-out: Inhibition of compounds against sEH, 50 μM (%)), the inhibition at 50 µM was found to be 27.3 ± 2.81%. For the molecule `C[C@@H]1C[C@@H]([C@@H](O)C(C)(C)O)O[C@H]2C[C@@]3(C)C(=C12)C[C@H](O)[C@H]1[C@@]2(C)CCC(=O)C(C)(C)[C@@H]2CC[C@@]13C` [Compound 14, alisol F], the “Inhibition of compounds … (%)” value on sEH [1] (setting [3]) stood at 18.30 ± 0.35%. For the same molecule, the IC50 on sEH [1] (setting [4]) was over 50 µM. The corresponding values for `C=C(C)[C@H](O)[C@@H](O)C[C@@H](C)C1=C2C=C[C@H]3[C@@]4(C)CCC(=O)C(C)(C)[C@@H]4CC[C@]3(C)[C@@]2(C)CC1=O` [Compound 12, alismanol B] are 44.97 ± 0.95% and over 50 µM. On to “16-oxo-11-anhydro alisol A 23,24-acetonide [Compound 11]”, for which the IC50 on sEH [1] (setting [4]) was 36.3 ± 4 µM.
